Laboratory results from patent US11161815B2, “Hydrocarbylsulfonyl-substituted pyridines and their use in the treatment of cancer” (Oblique Therapeutics AB, priority 2017, dated 2021).

How the values were obtained:
MDA-MB-468 = assay: Cancer cell viability assay (MTT), MDA-MB-468; format: cell-based; conditions: Homo sapiens, 72 hrs, 10% FBS media
Description: (§1) Breast cancer and glioblastoma cell lines were plated 4000 cells/well in 96-well plates in the presence of 10% FBS media. The following day cells were treated with various concentrations of the example compounds (0.1% DMSO final) and incubated for 72 hrs. After the incubation An MTT assay was performed to access cell viability. Percent of viability was determined using DMSO vehicle and no cell (blank) controls.

MDA-MB-231 = assay: Cancer cell viability assay (MTT), MDA-MB-231; format: cell-based; conditions: Homo sapiens, 72 hrs, 10% FBS media
Description: as §1

[1] = target: recombinant thioredoxin reductase 1 (TrxR1) (Homo sapiens (Human), UniProt Q16881); assay: Inhibition of recombinant TrxR1 (DTNB assay); format: biochemical; conditions: 30 nM TrxR1, 250 μM NADPH, 15 minutes incubation, read-out: TrxR Assay IC50
Description: (§2) Small molecule inhibition of recombinant thioredoxin reductase 1 (TrxR1) and gluthathione reductase (GR) was examined in 96-well plate format. 30 nM TrxR1 was incubated in the presence of 250 μM NADPH, 0.1 mg/ml BSA, and various concentrations of compound (1% DMSO final) in 50 mM Tris (pH 7.5) and 2 mM EDTA buffer for 15 minutes. Following the incubation period, 2 mM DTNB was added to each well and the change in O.D. at 412 nm was followed. Percent activity was determined using DMSO vehicle and no TrxR1 (blank) controls. 2 nM GR was incubated in the presence of 250 μM NADPH, 0.1 mg/ml BSA, and various concentrations of compounds (1% DMSO final) in 50 mM Tris (pH 7.5) and 2 mM EDTA buffer for 15 minutes. Following the incubation period, 1 mM GSSG was added to each well and the change in O.D. at 340 nm was followed. Percent activity was determined using DMSO vehicle and no GR (blank) controls.

MDA-MB-231 cells = assay: Breast cancer cell viability assay (Alamar Blue); format: cell-based; conditions: Homo sapiens, 72 hrs, 10% FBS media containing 25 nM selenite
Description: (§3) MDA-MB-231 cells were plated 2000 cells/well in 96-well black optical plates in the presence of 10% FBS media containing 25 nM selenite. The following day cells were treated with various concentrations of compounds (0.1% DMSO final) and incubated for 72 hrs. After the incubation Alamar Blue reagent was added to each well and incubated for additional 3 hrs. Fluorescence was read ex:530 nm/em:590 nm, and percent of viability was determined using DMSO vehicle and no cell (blank) controls.

FaDu cells = assay: Head and neck cancer cell viability assay (Cell-Quanti Blue); format: cell-based; conditions: Homo sapiens, 72 hrs, 10% FBS media containing 25 nM selenite
Description: as §3, with “FaDu” for “MDA-MB-231”, “the compound of Example 1” for “compounds”, “Cell-Quanti” for “Alamar”

[2] = target: gluthathione reductase (GR) (Homo sapiens (Human), UniProt P00390); assay: Inhibition of recombinant GR (GSSG assay); format: biochemical; conditions: 2 nM GR, 250 μM NADPH, 15 minutes incubation
Description: as §2

U-87 MG = assay: Cancer cell viability assay (MTT), U-87 MG; format: cell-based; conditions: Homo sapiens, 72 hrs, 10% FBS media
Description: as §1

Sequence of recombinant thioredoxin reductase 1 (TrxR1) (Q16881 151-649): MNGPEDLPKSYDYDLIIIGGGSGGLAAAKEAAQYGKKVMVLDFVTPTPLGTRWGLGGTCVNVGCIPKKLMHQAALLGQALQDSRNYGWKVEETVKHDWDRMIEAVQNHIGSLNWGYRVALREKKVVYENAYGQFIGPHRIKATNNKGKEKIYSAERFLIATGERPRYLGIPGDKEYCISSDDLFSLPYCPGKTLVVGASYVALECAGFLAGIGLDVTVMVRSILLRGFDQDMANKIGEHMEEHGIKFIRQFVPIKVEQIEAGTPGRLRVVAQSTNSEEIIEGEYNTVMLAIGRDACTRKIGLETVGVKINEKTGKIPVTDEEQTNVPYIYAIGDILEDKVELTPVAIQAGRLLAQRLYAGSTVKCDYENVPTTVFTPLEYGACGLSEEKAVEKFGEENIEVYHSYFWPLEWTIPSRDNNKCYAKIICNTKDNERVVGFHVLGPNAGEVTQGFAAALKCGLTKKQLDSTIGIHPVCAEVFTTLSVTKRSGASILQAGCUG
Sequence of gluthathione reductase (GR) (P00390 44-522): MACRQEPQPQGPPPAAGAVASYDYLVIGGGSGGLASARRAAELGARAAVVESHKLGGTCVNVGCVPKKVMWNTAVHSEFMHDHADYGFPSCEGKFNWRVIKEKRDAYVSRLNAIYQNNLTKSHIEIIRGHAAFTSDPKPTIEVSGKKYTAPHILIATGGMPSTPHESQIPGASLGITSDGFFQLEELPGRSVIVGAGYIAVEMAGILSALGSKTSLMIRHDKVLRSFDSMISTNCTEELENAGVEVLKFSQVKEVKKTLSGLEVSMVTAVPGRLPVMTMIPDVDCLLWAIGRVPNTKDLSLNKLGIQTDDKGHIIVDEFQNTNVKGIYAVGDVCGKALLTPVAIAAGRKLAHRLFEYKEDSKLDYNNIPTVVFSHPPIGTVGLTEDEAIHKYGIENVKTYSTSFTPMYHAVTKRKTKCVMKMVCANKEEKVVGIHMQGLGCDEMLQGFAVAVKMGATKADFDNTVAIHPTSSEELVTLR

IC50 (MDA-MB-468): 2.89 µM | IC50 (MDA-MB-231): 1.8 µM | IC50 [1]: 0.0182 µM | IC50 (MDA-MB-231 cells): 3.81 µM | IC50 (FaDu cells): 0.28 µM | IC50 [2]: > 100 µM | IC50 (U-87 MG): 6.11 µM
Structure (SMILES): COc1ccc([N+](=O)[O-])c(S(=O)(=O)Cc2ccccc2)n1 [Example 1, 2-Benzylsulfonyl-6-methoxy-3-nitropyridine]
